Reference: patent publication US12215106B2, “Pharmaceutical compounds and therapeutic methods” (RUTGERS, THE STATE UNIVERSITY OF NEW JERSEY, priority 2018, dated 2025)
Structures can show the parent of a compound that is named as a salt. Where two headings read alike, the source gives them in different places.

Assay: Plasma pharmacokinetics and brain distribution after single IV, IP and oral administration
Format: in vivo
Method: (§1) The objective of this study was to investigate the plasma pharmacokinetics and brain distribution of Compound (14 in male C57BL/6 mice following a single intravenous, intraperitoneal and oral administration. A group of sixty-three male mice were divided into three groups (Group 1: 2 mg/kg/IV; Group 2: 10 mg/kg/IP and Group 3: 10 mg/kg/PO) with each group comprising of twenty-one mice.
Animals in Group 1 were administered intravenously with Compound 15 solution formulation in 5% NMP, 5% Solutol HS-15, 30% PEG-400 and 60% Captisol (20% w/v) at 2 mg/kg dose. […] Considering mortality intravenous dose was reduced to 2 mg/kg.
Animals in Group 2 and 3 were administered with Compound 15 solution formulation in 5% NMP, 5% Solutol HS-15, 30% PEG-400 and 60% Captisol (20% w/v) at a dose of 10 mg/kg by intraperitoneal and oral route respectively.
(§2) Blood samples (approximately 60 μL) were collected under light isoflurane anesthesia from retro orbital plexus from a set of three mice at 0.08, 0.35, 1, 3, 6, 12 and 24 hr. Plasma samples were separated by centrifugation of whole blood and stored below −70±10° C. until bioanalysis. Immediately after collection of blood, brain samples were collected from set of three mice at each time point. Brain samples were homogenized using ice-cold phosphate buffer saline (pH-7.4) in a ratio of 2 (buffer):1(brain); and homogenates were stored below −70±10° C. until analysis. Total homogenate volume was three times the brain weight. All samples were processed for analysis by protein precipitation using acetonitrile and analyzed with fit-for-purpose LC/MS/MS method (LLOQ2.00 ng/mL for plasma and 3.00 ng/g for brain). Pharmacokinetic parameters were calculated using the non-compartmental analysis tool of Phoenix WinNonlin® (Version 7.0). Pharmacokinetic parameters of Compound 15 are summarized below.
as §1, with “Compound 16” for “Compound (14”, “1: 10” for “1: 2”
Animals in Group 1 were administered intravenously with Compound 16 solution formulation in 5% NMP, 5% Solutol HS-15 and 90% normal saline at 10 mg/kg dose.
Animals in Group 2 and 3 were administered with Compound 16 solution formulation in 5% NMP, 5% Solutol HS-15 and 90% normal saline at a dose of 10 mg/kg by intraperitoneal and oral route respectively.
as §2, with “(LLOQ—1.00” for “(LLOQ2.00”, “16” for “15”
as §1, with “17” for “(14”, “mice. […]” for “mice.”

[1] = male, C57BL/6, mouse, brain, ip, 10 mg/kg, IP 10 mg/kg, read-out: Brain-to-plasma ratio
[2] = male, C57BL/6, mouse, brain, po, 10 mg/kg, PO 10 mg/kg, read-out: Brain-to-plasma ratio
[3] = male, C57BL/6, mouse, in vivo, ip, 10 mg/kg
[4] = male, C57BL/6, mouse, in vivo, ip, 10 mg/kg, 12 h
[5] = male, C57BL/6, mouse, in vivo, ip, 10 mg/kg, 24 h
[6] = male, C57BL/6, mouse, in vivo, ip, 10 mg/kg, Brain concentration, individual animal
[7] = male, C57BL/6, mouse, in vivo, ip, 10 mg/kg, Mean brain conc.
[8] = male, C57BL/6, mouse, in vivo, ip, 10 mg/kg, Mean plasma conc.
[9] = male, C57BL/6, mouse, in vivo, ip, 10 mg/kg, Plasma concentration, individual animal
[10] = male, C57BL/6, mouse, in vivo, iv, 2 mg/kg
[11] = male, C57BL/6, mouse, in vivo, iv, 2 mg/kg, 6 h
[12] = male, C57BL/6, mouse, in vivo, iv, 2 mg/kg, 12 h
[13] = male, C57BL/6, mouse, in vivo, iv, 2 mg/kg, 24 h
[14] = male, C57BL/6, mouse, in vivo, iv, 2 mg/kg, Brain concentration, individual animal
[15] = male, C57BL/6, mouse, in vivo, iv, 2 mg/kg, Mean brain conc.
[16] = male, C57BL/6, mouse, in vivo, iv, 2 mg/kg, Mean plasma conc.
[17] = male, C57BL/6, mouse, in vivo, iv, 2 mg/kg, Plasma concentration, individual animal
[18] = male, C57BL/6, mouse, in vivo, po, 10 mg/kg
[19] = male, C57BL/6, mouse, in vivo, po, 10 mg/kg, 24 h
[20] = male, C57BL/6, mouse, in vivo, po, 10 mg/kg, Brain concentration, individual animal
[21] = male, C57BL/6, mouse, in vivo, po, 10 mg/kg, Mean brain conc.
[22] = male, C57BL/6, mouse, in vivo, po, 10 mg/kg, Mean plasma conc.
[23] = male, C57BL/6, mouse, in vivo, po, 10 mg/kg, Plasma concentration, individual animal
[24] = male, C57BL/6, mouse, in vivo, IV 2 mg/kg, read-out: Brain-to-plasma ratio

[2H]C([2H])([2H])Oc1ccc(Nc2nc(-c3c(C)nc4ccccn34)cs2)cc1 [Compound 15, N-(4-(methoxy-d3)phenyl)-4-(2-methylimidazo[1,2-c]pyridin-3-yl)thiazol-2-amine hydrochloride]
Kp at 0.08 h [1]: 0.19 | Kp at 0.35 h [1]: 0.63 | Kp at 1 h [1]: 0.75 | Kp at 3 h [1]: 0.36 | Kp at 6 h [1]: 0.38 | Kp (male, C57BL/6, mouse, brain, ip, 10 mg/kg, IP 10 mg/kg, read-out: brain-to-plasma ratio, range over time): 0.19 to 0.75 | Kp (male, C57BL/6, mouse, brain, iv, 2 mg/kg, IV 2 mg/kg, read-out: brain-to-plasma ratio, range over time): 1.17 to 1.64 | Kp at 0.08 h [2]: 0.1 | Kp at 0.35 h [2]: 0.41 | Kp at 1 h [2]: 1.03 | Kp at 3 h [2]: 0.7 | Kp at 6 h [2]: 0.6 | Kp at 12 h (male, C57BL/6, mouse, brain, po, 10 mg/kg, PO 10 mg/kg, 12 hr, read-out: Brain-to-plasma ratio): 0.62 | Kp (male, C57BL/6, mouse, brain, po, 10 mg/kg, PO 10 mg/kg, read-out: brain-to-plasma ratio, range over time): 0.1 to 1.03 | Kp (male, C57BL/6, mouse, brain, po, 10 mg/kg, summary data, read-out: Brain to plasma ratio following a single oral dose): 1.03 | Brain concentrations quantifiable up to [3]: up to 6 hr | Plasma concentrations quantifiable up to [3]: up to 6 hr | Brain concentration, individual animal [4]: 0.00 ng/g | Plasma concentration, individual animal [4]: 0.00 ng/mL | Brain concentration, individual animal [5]: 0.00 ng/g | Plasma concentration, individual animal [5]: 0.00 ng/mL | concentration at 0.08 h [6]: 38.4 ng/g | concentration at 0.35 h [6]: 287 ng/g | concentration at 1 h [6]: 383 ng/g | concentration at 3 h [6]: 48.4 ng/g | concentration at 12 h [6]: 0 ng/g | concentration at 24 h [6]: 0 ng/g | concentration at 0.08 h [7]: 43.6 ng/g | concentration at 0.35 h [7]: 266 ng/g | concentration at 1 h [7]: 305 ng/g | concentration at 3 h [7]: 57.7 ng/g | concentration at 6 h [7]: 6.06 ng/g | concentration at 12 h [7]: 0 ng/g | concentration at 24 h [7]: 0 ng/g | concentration at 0.08 h [8]: 229 ng/mL | concentration at 0.35 h [8]: 422 ng/mL | concentration at 1 h [8]: 409 ng/mL | concentration at 3 h [8]: 160 ng/mL | concentration at 6 h [8]: 16.1 ng/mL | concentration at 12 h [8]: 0 ng/mL | concentration at 24 h [8]: 0 ng/mL | concentration at 0.08 h [9]: 228 ng/mL | concentration at 0.35 h [9]: 467 ng/mL | concentration at 1 h [9]: 563 ng/mL | concentration at 3 h [9]: 174 ng/mL | concentration at 12 h [9]: 0 ng/mL | concentration at 24 h [9]: 0 ng/mL | Brain concentrations quantifiable up to [10]: up to 3 hr | Vss, fold more than normal volume of total body water (0.7 L/kg) [10]: 11 fold | Brain concentration, individual animal [11]: 0.00 ng/g | Plasma concentration, individual animal [11]: 0.00 ng/mL | Brain concentration, individual animal [12]: 0.00 ng/g | Plasma concentration, individual animal [12]: 0.00 ng/mL | Brain concentration, individual animal [13]: 0.00 ng/g | Plasma concentration, individual animal [13]: 0.00 ng/mL | concentration at 0.08 h [14]: 392 ng/g | concentration at 0.35 h [14]: 270 ng/g | concentration at 1 h [14]: 67.2 ng/g | concentration at 6 h [14]: 0 ng/g | concentration at 12 h [14]: 0 ng/g | concentration at 24 h [14]: 0 ng/g | concentration at 0.08 h [15]: 366 ng/g | concentration at 0.35 h [15]: 231 ng/g | concentration at 1 h [15]: 80 ng/g | concentration at 3 h [15]: 27.2 ng/g | concentration at 6 h [15]: 0 ng/g | concentration at 12 h [15]: 0 ng/g | concentration at 24 h [15]: 0 ng/g | concentration at 0.08 h [16]: 313 ng/mL | concentration at 0.35 h [16]: 149 ng/mL | concentration at 1 h [16]: 61.9 ng/mL | concentration at 3 h [16]: 16.6 ng/mL | concentration at 6 h [16]: 0 ng/mL | concentration at 12 h [16]: 0 ng/mL | concentration at 24 h [16]: 0 ng/mL | concentration at 0.08 h [17]: 298 ng/mL | concentration at 0.35 h [17]: 139 ng/mL | concentration at 6 h [17]: 0 ng/mL | concentration at 12 h [17]: 0 ng/mL | concentration at 24 h [17]: 0 ng/mL | Brain concentrations quantifiable up to [18]: up to 12 hr | Plasma concentrations quantifiable up to [18]: up to 12 hr | Brain concentration, individual animal [19]: 0.00 ng/g | Plasma concentration, individual animal [19]: 0.00 ng/mL | concentration at 0.08 h [20]: 8.31 ng/g | concentration at 1 h [20]: 190 ng/g | concentration at 24 h [20]: 0 ng/g | concentration at 0.08 h [21]: 7.99 ng/g | concentration at 0.35 h [21]: 108 ng/g | concentration at 1 h [21]: 253 ng/g | concentration at 3 h [21]: 66 ng/g | concentration at 6 h [21]: 6.63 ng/g | concentration at 12 h [21]: 3.63 ng/g | concentration at 24 h [21]: 0 ng/g | concentration at 0.08 h [22]: 78.2 ng/mL | concentration at 0.35 h [22]: 261 ng/mL | concentration at 1 h [22]: 245 ng/mL | concentration at 3 h [22]: 93.7 ng/mL | concentration at 6 h [22]: 11.1 ng/mL | concentration at 12 h [22]: 5.82 ng/mL | concentration at 24 h [22]: 0 ng/mL | concentration at 0.35 h [23]: 251 ng/mL | concentration at 12 h [23]: 8.42 ng/mL | concentration at 24 h [23]: 0 ng/mL | Kp at 0.08 h [24]: 1.17 | Kp at 0.35 h [24]: 1.55 | Kp at 1 h [24]: 1.29 | Kp at 3 h [24]: 1.64 | bioavailability (male, C57BL/6, mouse, plasma, po, 10 mg/kg, PO 10 mg/kg, AUClast considered, read-out: Oral bioavailability, % F): 64% | bioavailability (male, C57BL/6, mouse, plasma, po, 10 mg/kg, summary data, read-out: Oral bioavailability): 64% | Tmax (male, C57BL/6, mouse, plasma, IP 10 mg/kg): 21 min | clearance (male, C57BL/6, mouse, plasma, IV 2 mg/kg, read-out: CL, plasma clearance): 130 mL/min/kg | half-life (male, C57BL/6, mouse, plasma, IV 2 mg/kg, read-out: T1/2, terminal elimination half-life (converted)): 52.8 min | Tmax (male, C57BL/6, mouse, plasma, PO 10 mg/kg): 21 min | mortality immediately after dose administration (mouse, in vivo, iv, 10 mg/kg): mortality was observed in four animals
